Here are results for 2 compounds from BindingDB's records for doi:10.1021/jm901710h (Nerviano Medical Sciences, 2010).

pIC50: −log10 of the molar value.

The test concerns the target 3-phosphoinositide-dependent protein kinase 1, PDPK1 (Homo sapiens) (UniProt O15530). Description: Inhibition of PDK1.

Sequence of 3-phosphoinositide-dependent protein kinase 1, PDPK1 (Homo sapiens) (O15530 whole entry, looked up): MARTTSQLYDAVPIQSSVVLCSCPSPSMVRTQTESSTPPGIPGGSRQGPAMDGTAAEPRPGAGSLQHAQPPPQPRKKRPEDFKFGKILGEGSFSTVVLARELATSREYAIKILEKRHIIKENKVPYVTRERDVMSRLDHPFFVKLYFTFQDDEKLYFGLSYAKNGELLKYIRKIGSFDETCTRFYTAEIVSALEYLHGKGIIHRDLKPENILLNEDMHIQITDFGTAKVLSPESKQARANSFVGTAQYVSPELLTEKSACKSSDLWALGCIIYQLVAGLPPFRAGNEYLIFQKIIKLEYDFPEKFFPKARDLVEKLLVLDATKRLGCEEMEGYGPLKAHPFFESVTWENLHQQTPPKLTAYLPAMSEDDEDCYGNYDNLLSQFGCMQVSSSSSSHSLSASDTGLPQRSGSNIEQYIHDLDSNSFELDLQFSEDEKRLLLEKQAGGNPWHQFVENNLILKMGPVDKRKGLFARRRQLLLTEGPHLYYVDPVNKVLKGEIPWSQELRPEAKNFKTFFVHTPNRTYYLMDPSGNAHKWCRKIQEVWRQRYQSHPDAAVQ

The pIC50 is the negative decadic logarithm of the IC50, by convention in mol/L. A low value points to a high IC50. For the compound `Cn1nc(C(N)=O)c2c1-c1nc(NC3CCN(C(=O)c4ccccc4)CC3)ncc1CC2` [1-Methyl-8-{[1-(phenylcarbonyl)piperidin-4-yl]amino}-4,5-dihydro-1H-pyrazolo[4,3-h]quinazoline-3-carboxamide], the negative logarithm of the IC50 (pIC50) is under 5.00.

Compound `CC(=O)N1CCC(Nc2ncc3c(n2)-c2c(c(C(N)=O)nn2C)CC3)CC1` [8-[(1-Acetylpiperidin-4-yl)amino]-1-methyl-4,5-dihydro-1H-pyrazolo[4,3-h]quinazoline-3-carboxamide] showed a pIC50 of under 5.00.
